The record followed here is ChEMBL document CHEMBL1147616, “DNA binding of a short lexitropsin” (Bioorg Med Chem Lett, 2004).

The structures appear in SMILES notation.

The assay has as its system Nucleic Acid. Put plainly: Compound was evaluated for its binding activity to the DNA AT-rich sites. Type of assay: nucleic-acid assay.

Molecule `CC(C)n1cc(NC(=O)c2cc(NC=O)cn2C)cc1C(=O)Nc1cc(C(=O)NCCCN(C)C)n(C)c1` showed a Binding activity of 0.3 µM.

Molecule `CN(C)CCCNC(=O)c1cc(NC(=O)c2cc(NC(=O)c3cc(NC=O)cn3C)cn2C)cn1C` had a Binding activity of 3 µM.
